{"source": "PubChem BioAssay AID602210", "about": "(Sanford-Burnham Center for Chemical Genomics, 2012)", "note": "Activity calls are given as the source filed them. The rule behind the calls is not given here.", "data": [{"assay": "modulators of 2-deoxyglucose-induced H9c2 death, dose response, myocardial damage modulator project, cell-based, ATPlite luminescence, rat, set 2 (AID 602210)", "conditions": "H9c2 rat cardiomyoblasts, 2-deoxyglucose-induced death, 2 h", "values": [{"smiles": "O=C(Nc1nc(-c2cc(F)ccc2F)cs1)C1=NN(c2ccccc2)C(=O)CC1", "IC50": "14.2 µM (inactive)"}, {"smiles": "Cn1c(=O)n(CCc2ccccc2)c(=O)c2c1nc1n2CCCN1Cc1ccccc1", "IC50": "14.5 µM (inactive)"}, {"smiles": "Cn1c(=O)[nH]c(=O)c2c1nc(Br)n2CC(O)COc1ccc(Cl)cc1", "note": "(stereo not drawn)", "IC50": "22.8 µM (inactive)"}, {"smiles": "O=C(Cn1nc(C(=O)O)c2ccccc2c1=O)c1c[nH]c2ccccc12", "IC50": "40.1 µM (inactive)"}, {"smiles": "O=[N+]([O-])c1ccc(Nc2nc(N/N=C/c3cccc(F)c3)nc(N3CCCC3)n2)cc1", "IC50": "10.2 µM (inactive)"}, {"smiles": "CC(=O)NCc1ccc(-c2csc(NC(=O)CCc3nc4ccccc4c(=O)[nH]3)n2)s1", "IC50": "28.5 µM (inactive)"}, {"smiles": "CCOc1ccccc1Nc1nnc(SCc2nnc(-c3cc(OC)c(OC)c(OC)c3)o2)s1", "IC50": "12.8 µM (inactive)"}, {"smiles": "COc1ccc2occ(C(=O)c3coc4ccc(O)c(CN(C)C)c34)c2c1", "IC50": "68 µM (inactive)"}, {"smiles": "COc1ccc(-c2oc3c(OC)c(OC)c(OC)c(O)c3c(=O)c2OC)cc1OC", "IC50": "> 79 µM (inactive)"}, {"smiles": "COc1ccc(-c2nn3c(-c4ccco4)nnc3s2)cc1OC", "IC50": "28.2 µM (inactive)"}, {"smiles": "CC(=O)Nc1cccc(-c2cc(NC=O)c3ncc(-c4cccc(C(C)=O)c4)n3c2)c1", "IC50": "11 µM (inactive)"}, {"smiles": "COc1ccc(-c2ccc3c(c2)S(=O)(=O)c2cccc(C(=O)N4CCN(c5c(Cl)cncc5Cl)CC4)c2C3=O)cc1OC", "IC50": "8.36 µM"}, {"smiles": "Cc1cccc(NC(=O)c2cc(-c3ccco3)nc3ccccc23)n1", "IC50": "12.2 µM (inactive)"}, {"smiles": "O=C(NC1CCCCC1)C(c1ccc2ncccc2c1)N(Cc1ccco1)C(=O)c1ccc2c(c1)OCCO2", "note": "(stereo not drawn)", "IC50": "42.5 µM (inactive)"}, {"smiles": "Cc1ccc2nsnc2c1S(=O)(=O)N(Cc1ccco1)Cc1cc2cccc(C)c2[nH]c1=O", "IC50": "> 79 µM (inactive)"}, {"smiles": "Cc1nc2c(c(=O)n1CCC1=CCCCC1)c1nc3ccccc3nc1n2/N=C/c1ccccc1", "IC50": "15.1 µM (inactive)"}, {"smiles": "COc1ccccc1NC(=O)COc1ccc(/C=N/NC(=O)c2cccnc2)cc1", "IC50": "21.1 µM (inactive)"}, {"smiles": "C[C@H](CO)N1C[C@H](C)[C@@H](CN(C)C(=O)Nc2ccc3c(c2)OCO3)Oc2c(NC(=O)Nc3ccc(C(F)(F)F)cc3)cccc2C1=O", "IC50": "> 79 µM (inactive)"}, {"smiles": "COc1ccc(N(CC(=O)N/N=C/c2cccs2)S(=O)(=O)c2ccc(OC)c(OC)c2)cc1", "IC50": "28 µM (inactive)"}, {"smiles": "COc1cc2[nH]c(=O)n3nc(-c4ccccc4)nc3c2cc1OC", "IC50": "12.1 µM (inactive)"}, {"smiles": "O=C1NC(Cc2ccc(O)cc2)c2nc3ccc(F)cc3c(=O)n2-c2cc3ccccc3cc21", "note": "(stereo not drawn)", "IC50": "11.1 µM (inactive)"}, {"smiles": "COc1cc(NC(=O)c2c(OC)cccc2OC)ccc1NC(=O)c1cc2ccccc2o1", "IC50": "13.4 µM (inactive)"}, {"smiles": "CCOc1ccccc1NC(=O)c1oc2ccccc2c1NC(=O)C1CCCO1", "note": "(stereo not drawn)", "IC50": "12.6 µM (inactive)"}, {"smiles": "Cc1ccc(C)c(NC(=O)C(Sc2nc3ccccc3c(=O)n2CC(C)C)c2ccccc2)c1", "note": "(stereo not drawn)", "IC50": "0.34 µM"}, {"smiles": "COc1ccccc1NC(=O)c1cc(-c2cc(OC)c(OC)c(OC)c2)nc2ccccc12", "IC50": "8.68 µM"}, {"smiles": "Cc1ccc2nc(-c3ccccc3)cc(C(=O)NNC(=O)c3csc(N4CCOCC4)n3)c2c1", "IC50": "12.4 µM (inactive)"}, {"smiles": "C[C@H]1Cn2cnc(C(=O)N[C@@H](Cc3c[nH]c4ccccc34)C(=O)OC(C)(C)C)c2C(=O)N1", "IC50": "24.7 µM (inactive)"}, {"smiles": "Cc1ccccc1C1c2[nH]c3ccccc3c2C[C@H]2C(=O)N(c3ccccc3C(=O)NCCCN3CCOCC3)C(=O)N12", "note": "(stereo partly drawn)", "IC50": "46 µM (inactive)"}, {"smiles": "COc1ccc(-c2cc(NC=O)c3ncc(-c4ccccc4)n3c2)cc1OC", "IC50": "> 79 µM (inactive)"}, {"smiles": "COc1ccc(C(=O)Nc2cccc(/C(C)=N/NC(=O)c3ccc([N+](=O)[O-])c(C)c3)c2)cc1OC", "IC50": "18.7 µM (inactive)"}, {"smiles": "CCc1nc(N2CCN(C(=O)c3ccco3)CC2)c2oc3ccccc3c2n1", "IC50": "24.7 µM (inactive)"}, {"smiles": "COc1cccc(Nc2nc(-c3sc(NC(=O)c4ccco4)nc3C)cs2)c1", "IC50": "9.04 µM"}, {"smiles": "COc1ccnc(Oc2ccccc2)c1C(=O)N/C=N/OCc1ccc(F)cc1Cl", "IC50": "8.39 µM"}, {"smiles": "C[C@H](CO)N1C[C@H](C)[C@@H](CN(C)S(=O)(=O)c2cccs2)Oc2ccc(NC(=O)Nc3ccccc3)cc2C1=O", "IC50": "> 79 µM (inactive)"}, {"smiles": "Cc1ccc2[nH]c(=O)c(CN(Cc3ccco3)S(=O)(=O)c3c(C)ccc4nsnc34)cc2c1", "IC50": "45.3 µM (inactive)"}, {"smiles": "COCCN1Cc2cccc(C(=O)Nc3cccc(-c4nc5ccccc5[nH]4)c3)c2C1=O", "IC50": "3.71 µM"}, {"smiles": "CCOC(=O)c1cccc(Nc2nc(-c3cccnc3)nc3ccccc23)c1", "IC50": "> 79 µM (inactive)"}, {"smiles": "COc1ccc(NC(=O)c2cc(-c3ccc(OC)c(OC)c3)nc3ccccc23)c(OC)c1", "IC50": "> 79 µM (inactive)"}]}]}
